These results are taken from PMC4355590, “A Kinetic Study of the Main Guaco Metabolites Using Syrup Formulation and the Identification of an Alternative Route of Coumarin Metabolism in Humans” (PLoS ONE, 2015).

Series [1] in a line: Stability of stock solutions and working standard solutions. The series is classed as physicochemical. The following applies: for Mean recovery: n = 8, ± SD. On the procedure: The stability of the stock solutions (1 mg/mL of each analyte and ISs) was evaluated after 30 days of storage in a refrigerator (4°C, amber bottles). The stored solutions were diluted with acetonitrile/water (70:30 v/v) to obtain the same concentration levels as the short-term stability assay. The stability of the stock solutions was evaluated by comparing the mean recovery of the analytes and IS obtained from stored samples to the mean values obtained with freshly prepared samples, at the same concentration levels. The stability of the working standard solutions was assessed using a procedure similar to that described for stock solution stability. […]

A short description of series [2]: Initial screening of bioavailability: 60 mL of guaco syrup orally. Format: in vivo, human. The following applies: 60 mL guaco syrup (17.6 mg COU, 1.1 mg OCA, 8.9 mg KAU), up to 600 min. On the procedure:
All the volunteers fasted for 8 h prior to the administration of guaco syrup and blood collection. […] The anticoagulant used was tetrasodium edetate. […] The pharmacokinetic analysis was performed using a non-compartmental model, considering an extravascular administration route and using WinNonlin Professional software, version 5.3. The relationships among the areas under the curves (r areas = AUC0-t/AUC0-inf), were used to confirm the suitability of the experimental design.

The nature of series [3]: Pharmacokinetic study: volunteers orally received 60 mL of guaco syrup spiked with 1500 mg of COU, plasma by HPLC-MS/MS. Format: in vivo, human. From the text:
The weight ranged from 63 to 88 kg and the height from 1.65 to 1.80 m. The volunteers were submitted to the medical consultations and clinical analyses before their participation in the study. Only healthy volunteers (normal values of blood pressure and renal, hepatic, biochemical and hematological parameters) were eligible to participate in the study. […] The volunteers were informed about all the procedures and possible risks related to the study. All the volunteers provided written informed consent to participate in the study. […] All the volunteers fasted for 8 h prior to the administration of guaco syrup and blood collection. […] The anticoagulant used was tetrasodium edetate. […] The pharmacokinetic analysis was performed using a non-compartmental model, considering an extravascular administration route and using WinNonlin Professional software, version 5.3. The relationships among the areas under the curves (r areas = AUC0-t/AUC0-inf), were used to confirm the suitability of the experimental design. […] All the frozen (-40°C) human plasma samples from the volunteers were thawed at room temperature, and a 200 μL aliquot was transferred into 2 mL plastic centrifuge tubes. The analytes were extracted as follows. The 200 μL aliquots of thawed samples were spiked with 50 μL of acetonitrile/water (70:30 v/v) and 50 μL of the working IS solution to obtain a final concentration of 500 ng/mL of 6-methylcoumarin. The spiked samples were vortexed for 2 min, and a 1.5 mL aliquot of TBME was added to the tube. The samples were vortexed for 2 min and then submitted to centrifugation for 10 min (14000 rpm, -5°C). A 1.2 mL aliquot of each sample supernatant was transferred to a new plastic centrifuge tube, and TBME was evaporated at 40°C in a sample concentrator (CentriVap Labconco, Kansas City, EUA). The remaining samples were resuspended in 200 μL of acetonitrile/water (70:30 v/v) using a vortex mixer for 3 min. The 200 μL aliquots of the thawed samples were spiked with 50 μL of acetonitrile/water (70:30 v/v) and 50 μL of the working IS solution to obtain a final concentration of 500 ng/mL of prednisone (IS) and 1000 ng/mL of isoferulic acid (IS). The spiked samples were vortexed for 2 min, and a 1.5 mL of acetonitrile was added to the tube. The samples were vortexed for 2 min and then were submitted to centrifugation for 10 min (14000 rpm, -5°C). Each sample supernatant was transferred to a new plastic centrifuge tube, and acetonitrile was evaporated in a sample concentrator (40°C). The samples were resuspended in 200 μL of acetonitrile/water (70:30 v/v) using a vortex mixer for 3 min. […] The HPLC was connected to a CTC Sample Manager (Model 2777, Waters Corporation, Milford, USA) that was operated at room temperature. Acetonitrile and methanol were used as wash solvents. The HPLC system was coupled to an Applied Biosystems MDS Sciex API 3200 Triple Quadrupole Mass Spectrometer (Toronto, Canada), equipped with a Harvard 22 Dual Model syringe pump (Harvard Apparatus, South Natick, USA) and an electrospray ionization (ESI) source. […] For the positive ion mode, the mobile phase consisted of acetonitrile/water/formic acid (70:30:0.05 v/v/v) at an elution rate of 200 μL/min in an isocratic system. For the negative ion mode, the mobile phase consisted of a gradient of water (A) and acetonitrile/water 95:5 v/v (B), both containing 1 mM ammonium formate. The flow rate was maintained at 400 μL/min, and the gradient profile was as follows: t0-1.0min: […] A = 70%; and t5.1-9.0min: A = 70%. […] The injection volume was 20 μL, and the column temperature was maintained at 25°C for positive ion mode and at 35°C for negative ion mode. Data acquisition was performed with the MS Workstation by Analyst software, version 1.4.2 (ABSciex). Quantification was performed in Multiple Reaction Monitoring (MRM) mode, maintaining the dwell time at 300 and 400 ms for the positive and negative ion modes, respectively. […]

The mark [4] stands for this setting: 8 h at room temperature, high level (Coumarin 1250.0, 7-hydroxycoumarin 750.0, o-coumaric acid 750.0, Kaurenoic acid 500.0 ng/mL).
Where [5] appears, read: 8 h at room temperature, high level, stored vs freshly prepared.
[6] abbreviates: 8 h at room temperature, low level (Coumarin 50.0, 7-hydroxycoumarin 12.5, o-coumaric acid 25.0, Kaurenoic acid 10.0 ng/mL).
The mark [7] stands for this setting: 8 h at room temperature, low level, stored vs freshly prepared.
Where [8] appears, read: 30 days at 4 °C (stock solutions), high level (1250.0, 750.0, 750.0, 500.0 ng/mL).
The mark [9] stands for this setting: 30 days at 4 °C (stock solutions), low level (50.0, 12.5, 25.0, 10.0 ng/mL).
The mark [10] stands for this setting: both sexes, human, plasma, po, 1500 mg, human plasma, 60 mL guaco syrup spiked with 1500 mg coumarin, n = 5, mean ± S.D.
The mark [11] stands for this setting: both sexes, human, plasma, po, 1500 mg, human plasma, 60 mL guaco syrup spiked with 1500 mg coumarin, n = 5, mean ± S.D., read-out: Cmax.
Setting [12] is: both sexes, human plasma, oral, 60 mL guaco syrup spiked with 1500 mg coumarin, n = 5, mean ± S.D.
[13] abbreviates: human plasma, oral, 60 mL guaco syrup spiked with 1500 mg coumarin, n = 5, mean ± S.D.

Structures are written as SMILES. Several values for one entry are separate records, joined by “and”; a condition that tells them apart may be missing. Equal entries are not always repeated. Where two headings read alike, the source gives them in different places. Marks after values point to notes of the source that are not given here.

In general, half-life refers to the time in which the quantity being followed falls by half. A lower half-life goes with rapid decline. As usually defined, the Cmax is the highest concentration seen after dosing. Usually AUC(0-inf) stands for total exposure, with the tail of the curve extrapolated. High values mean high exposure, low ones low exposure. For orientation: AUC(0-t) means the area under the concentration-time curve up to a stated or last time point. A higher AUC(0-t) goes with high exposure. Usually Tmax stands for the time from dosing to the highest level.

For the molecule `O=c1ccc2ccc(O)cc2o1` [7-HCOU, 7-hydroxycoumarin], the Mean recovery turned out to be 757.9 ± 5.6 ng/mL in series [1] (setting [4]), 11.6 ± 0.6 ng/mL in series [1] (setting [6]), 791.8 ± 60.5 ng/mL in series [1] (setting [8]) and 11.4 ± 0.9 ng/mL in series [1] (setting [9]). Further, the RE is 1.06% in series [1] (setting [5]); -7.41% in series [1] (setting [7]); 5.57% in series [1] (30 days at 4 °C, high level); -8.02% in series [1] (30 days at 4 °C, low level). Besides, in series [2], the “plasma levels after guaco syrup without spiking” value is listed as “did not provide sufficient levels”. For the same molecule, the half-life in series [3] (setting [10]) was around 1 h. Also, the Cmax in series [3] (setting [11]) is 85 ± 40.1 ng/mL. In series [3] (setting [12]), this molecule yielded an AUC(0-inf) of 134 ± 58 ng·h/mL. The molecule further displayed an AUC(0-t) in series [3] (setting [12]) of 126 ± 54 ng·h/mL. Also, the Tmax in series [3] (setting [12]) came to 1.4 ± 0.68 h. For the same molecule, the Kel (elimination rate constant) in series [3] (setting [13]) was 0.91 ± 0.59 h⁻¹. In series [3] (setting [13]), the T1/2 was 1.16 ± 0.82 ^a h. In addition, in series [3] (setting [13]), the “r areas (AUC0-t/AUC0-inf)” value is reported as 0.95 ± 0.05.
As to `O=c1ccc2ccccc2o1` [COU, 1,2 benzopyrone], the Mean recovery is recorded as 1293.1 ± 30.5 ng/mL in series [1] (setting [4]), 54.5 ± 3.2 ng/mL in series [1] (setting [6]), 1173.4 ± 67.9 ng/mL in series [1] (setting [8]) and 56.1 ± 2.3 ng/mL in series [1] (setting [9]). In addition, the RE in series [1] (setting [5]) is on record as 3.45%; in series [1] (setting [7]), 8.94%; in series [1] (30 days at 4 °C, high level) it was -6.13%; in series [1] (30 days at 4 °C, low level), 12.27%. Further, in series [2], the “plasma levels after guaco syrup without spiking” value is “did not provide sufficient levels”. In series [3] (both sexes, human, plasma, oral, 1500 mg, Cl/f multiplied by the bioavailability 0.034 of ref 32, read-out: estimated clearance (Cl = 1148.0 x 0.034) (converted)), the clearance was 651 mL/min. Also, in series [3] (both sexes, human, plasma, oral, 1500 mg, Vd/f multiplied by the bioavailability 0.034 of ref 32, read-out: estimated volume of distribution (Vd = 6733.0 x 0.034)), the Vd is 229 L. The same molecule had a half-life in series [3] (setting [10]) of around 4 h. Further, the figures for the highest concentration (Cmax) in series [3] (setting [11]) and in series [3] (setting [13]) were 735 ng/mL and 735.46 ± 252.29 ng/mL, respectively. In series [3] (setting [12]), this molecule yielded an AUC(0-inf) of 1460 ± 547 ng·h/mL. Besides, the AUC(0-t) in series [3] (setting [12]) amounted to 1340 ± 515 ng·h/mL. Moreover, the Tmax in series [3] (setting [12]) turned out to be 0.93 ± 0.57 h. Further, the Vd/F in series [3] (both sexes, human plasma, oral, 60 mL guaco syrup spiked with 1500 mg coumarin, n = 5, mean ± S.D., read-out: Vd/f (apparent volume of distribution)) worked out at 6730 ± 3280 L. Also, the “Cl/f (apparent clearance)” value in series [3] (setting [13]) was 1148.0 L/h and 1148.0 ± 411.0 L/h. The “r areas (AUC0-t/AUC0-inf)” value in series [3] (setting [13]) came to 0.92 ± 0.03.
`O=C(O)/C=C/c1ccccc1O` [OCA, o-coumaric acid]: the Mean recovery in series [1] (setting [4]) amounted to 718.0 ± 48.0 ng/mL; in series [1] (setting [6]) it was 22.6 ± 1.3 ng/mL; in series [1] (setting [8]) it was 640.8 ± 45.6 ng/mL; in series [1] (setting [9]), 22.8 ± 1.2 ng/mL. The RE is -4.26% in series [1] (setting [5]); -9.44% in series [1] (setting [7]); -14.55% in series [1] (30 days at 4 °C, high level); -8.89% in series [1] (30 days at 4 °C, low level). The “plasma levels after guaco syrup without spiking” value in series [2] is given as “did not provide sufficient levels”. The molecule further gave a half-life in series [3] (setting [10]) of around 3 h. Besides, the Cmax in series [3] (setting [11]) was 231 ± 187 ng/mL. In addition, the AUC(0-inf) in series [3] (setting [12]) is 518 ± 299 ng·h/mL. This molecule came in with an AUC(0-t) in series [3] (setting [12]) of 465 ± 299 ng·h/mL. The Tmax in series [3] (setting [12]) was determined as 1.45 ± 0.84 h. For the same molecule, the T1/2 in series [3] (setting [13]) is listed as 3.50 ± 0.83 ^b h. Further, in series [3] (setting [13]), the “r areas (AUC0-t/AUC0-inf)” value was found to be 0.87 ± 0.08.
